Columns and labels:
PI3K-delta = target: T1, PI3K-delta (Homo sapiens, UniProt O00329); assay: HTRF PI3K biochemical assay, delta isoform; details: form screened (neutral or TFA salt) given, read-out: PI3Kdelta IC50
T1 construct: purchased Upstate; Millipore 14-604
From the text: HTRF PI3K Biochemical Assay to Measure Intrinsic Potency of Compound Inhibitors
This assay was developed and further optimized from a kit produced by Upstate (Millipore catalog #33-047) and has been configured for HTS and SAR screening. Briefly, this procedure exploits the exquisite specificity and high affinity binding of enzyme reaction substrate phosphatidyl(3,4,5)triphosphate (PIP3) to the GRP1 pleckstrin homology (PH) domain to generate the signal. In the absence of PIP3, an HTRF (Homogeneous Time-Resolved Fluorescence energy transfer) complex is formed consisting of europium (Eu)-labeled anti-GST, GSTtagged GRP1-PH domain, biotin-PIP3 and streptavidin conjugated APC. The native PIP3 produced by PI3-Kinase activity disrupts in a competitive manner the biotin-PIP3 from the PH domain, resulting in the loss of energy transfer (HTRF complex) and a decrease in the signal. The format of this assay is the same for all 4 isoforms of PI3K; the differences lie in the concentration of enzyme used to achieve robust assay window. The alpha, beta, and delta assays are run at 0.5, 1, and 0.3 nM enzymes and the gamma assay is run at 5 nM enzyme. The ATP concentration is 100 uM in the alpha, beta, and delta assays and 50 uM ATP in the gamma assay. All reactions are run at 5 uM PIP2.
Compounds are serially diluted (3-fold in 100% DMSO) across a 384-well polypropylene source plated from column 3 to column 12 and column 13 to column 22, to yield 10 concentration dose response for each test compound. Columns 1, 2, 23 and 24 contain either only DMSO or pharmacological known control inhibitor.
The PI3-Kinase biochemical assay was optimized using the HTRF kit provided by Upstate (Millipore). The assay kit contains six reagents: 1) 4× Reaction Buffer; 2) native PIP2 (substrate); 3) Stop (EDTA); 4) Detection Mix A (Streptavidin-APC); 5) Detection Mix B (Eu-labeled Anti-GST plus GST-tagged PH-domain); 6) Detection Mix C.
PI3Kinase Reaction Buffer is prepared by dilution the stock 1:4 with de-ionized water. […] Enzyme addition and compound pre-incubation are initiated by the addition of 1.25 ul of PI3K (at twice its final concentration) in the 1× reaction buffer to all wells using a BioRaptor. Plates are incubated at room temperature for 15 minutes. Reactions are initiated by addition of 1.25 ul of 2× substrate solution (PIP2 and ATP in 1× reaction buffer) using BioRaptor. Plates are incubated in humidified chamber at room temperature for one hour. Reactions are quenched by addition of 0.625 uL of stop solution to all wells using the BioRaptor. The quenched reactions are then processed to detect product formation by adding 0.625 uL of Detection Solution to all wells using the BioRaptor (Detection mix C, Detection Mix A, and Detection Mix B combined together in an 18:1:1 ratio prepared 2 hours prior to use).
The loss of the HTRF signal is due to the displacement of biotinylated-PIP3 from the PH domain by the PI3K-dependent conversion of PIP2 to PIP3. This loss of signal is nonlinear with respect to both increasing product and time. This non-linear detection will impact accuracy of IC50 calculations; therefore, there is a need for a correction factor to obtain more accurate IC50 values. This correction is derived from a PIP3 standard curve run in a separate assay plate. All data were calculated using the ratio of acceptor (APC) to donor (Europium) fluorescence in each well of the assay plate. […] An IC50 was then calculated fitting the % inhibition data to the equation: % inhibition=min+(Max−min)/1+([inhibitor]/IC50)^n) where min is the % inhibition with inhibitor, max is the signal in DMSO control, and n is the Hill slope.

PI3K-alpha = target: T2, PI3K-alpha (Homo sapiens, UniProt P42336); assay: HTRF PI3K biochemical assay, alpha isoform; details: ratio PI3K-alpha IC50 value / PI3K-delta IC50 value
T2 construct: purchased Upstate; Millipore 14-602
T2 sequence (P42336 whole entry, canonical isoform): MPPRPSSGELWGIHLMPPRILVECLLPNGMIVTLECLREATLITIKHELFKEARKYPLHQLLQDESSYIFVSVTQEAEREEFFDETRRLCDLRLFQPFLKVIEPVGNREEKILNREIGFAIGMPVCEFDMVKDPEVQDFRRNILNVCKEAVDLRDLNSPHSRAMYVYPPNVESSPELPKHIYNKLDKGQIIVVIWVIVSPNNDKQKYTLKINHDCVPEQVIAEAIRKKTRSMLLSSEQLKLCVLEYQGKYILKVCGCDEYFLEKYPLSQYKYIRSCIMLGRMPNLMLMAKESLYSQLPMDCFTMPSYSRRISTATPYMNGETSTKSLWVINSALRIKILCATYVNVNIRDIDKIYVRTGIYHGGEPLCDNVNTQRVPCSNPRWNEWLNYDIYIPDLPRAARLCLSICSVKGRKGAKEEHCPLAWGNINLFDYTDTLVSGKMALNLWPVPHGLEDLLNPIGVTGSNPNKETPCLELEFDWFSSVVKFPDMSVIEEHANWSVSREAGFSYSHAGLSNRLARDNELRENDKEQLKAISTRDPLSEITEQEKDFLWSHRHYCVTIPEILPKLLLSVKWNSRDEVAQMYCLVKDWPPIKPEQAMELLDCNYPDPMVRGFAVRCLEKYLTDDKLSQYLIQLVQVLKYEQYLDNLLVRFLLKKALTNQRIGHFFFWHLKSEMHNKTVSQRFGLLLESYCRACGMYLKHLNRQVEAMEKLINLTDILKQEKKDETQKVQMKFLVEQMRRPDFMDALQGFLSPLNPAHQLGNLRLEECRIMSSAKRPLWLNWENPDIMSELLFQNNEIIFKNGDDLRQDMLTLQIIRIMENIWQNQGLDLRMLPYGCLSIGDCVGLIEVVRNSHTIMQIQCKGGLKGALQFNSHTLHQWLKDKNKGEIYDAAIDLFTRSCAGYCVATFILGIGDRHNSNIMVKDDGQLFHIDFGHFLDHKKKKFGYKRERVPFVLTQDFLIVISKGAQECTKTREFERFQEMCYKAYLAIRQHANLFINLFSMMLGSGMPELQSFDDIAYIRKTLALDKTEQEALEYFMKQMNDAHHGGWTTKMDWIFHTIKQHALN
T2 sequence (P27986 whole entry partner, canonical isoform): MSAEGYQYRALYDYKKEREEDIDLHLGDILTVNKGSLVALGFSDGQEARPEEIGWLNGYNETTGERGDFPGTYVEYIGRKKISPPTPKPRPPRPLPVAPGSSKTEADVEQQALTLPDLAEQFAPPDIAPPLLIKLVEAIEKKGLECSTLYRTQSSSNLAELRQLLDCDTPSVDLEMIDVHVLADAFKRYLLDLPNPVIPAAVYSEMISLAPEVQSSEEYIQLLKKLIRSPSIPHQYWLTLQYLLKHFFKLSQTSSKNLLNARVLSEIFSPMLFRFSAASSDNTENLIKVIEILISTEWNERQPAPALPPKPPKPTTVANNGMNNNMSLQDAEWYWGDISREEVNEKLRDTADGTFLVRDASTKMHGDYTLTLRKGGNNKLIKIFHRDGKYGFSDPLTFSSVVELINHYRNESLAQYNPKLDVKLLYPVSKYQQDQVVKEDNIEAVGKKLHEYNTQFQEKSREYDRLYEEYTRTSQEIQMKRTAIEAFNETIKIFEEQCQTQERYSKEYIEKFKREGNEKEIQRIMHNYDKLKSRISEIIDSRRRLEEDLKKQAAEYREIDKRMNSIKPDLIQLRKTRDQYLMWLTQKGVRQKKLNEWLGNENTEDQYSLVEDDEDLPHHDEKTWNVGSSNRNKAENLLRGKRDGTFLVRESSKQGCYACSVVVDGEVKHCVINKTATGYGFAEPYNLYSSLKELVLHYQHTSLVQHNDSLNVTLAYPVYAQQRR

T1 sequence (O00329 whole entry, canonical isoform): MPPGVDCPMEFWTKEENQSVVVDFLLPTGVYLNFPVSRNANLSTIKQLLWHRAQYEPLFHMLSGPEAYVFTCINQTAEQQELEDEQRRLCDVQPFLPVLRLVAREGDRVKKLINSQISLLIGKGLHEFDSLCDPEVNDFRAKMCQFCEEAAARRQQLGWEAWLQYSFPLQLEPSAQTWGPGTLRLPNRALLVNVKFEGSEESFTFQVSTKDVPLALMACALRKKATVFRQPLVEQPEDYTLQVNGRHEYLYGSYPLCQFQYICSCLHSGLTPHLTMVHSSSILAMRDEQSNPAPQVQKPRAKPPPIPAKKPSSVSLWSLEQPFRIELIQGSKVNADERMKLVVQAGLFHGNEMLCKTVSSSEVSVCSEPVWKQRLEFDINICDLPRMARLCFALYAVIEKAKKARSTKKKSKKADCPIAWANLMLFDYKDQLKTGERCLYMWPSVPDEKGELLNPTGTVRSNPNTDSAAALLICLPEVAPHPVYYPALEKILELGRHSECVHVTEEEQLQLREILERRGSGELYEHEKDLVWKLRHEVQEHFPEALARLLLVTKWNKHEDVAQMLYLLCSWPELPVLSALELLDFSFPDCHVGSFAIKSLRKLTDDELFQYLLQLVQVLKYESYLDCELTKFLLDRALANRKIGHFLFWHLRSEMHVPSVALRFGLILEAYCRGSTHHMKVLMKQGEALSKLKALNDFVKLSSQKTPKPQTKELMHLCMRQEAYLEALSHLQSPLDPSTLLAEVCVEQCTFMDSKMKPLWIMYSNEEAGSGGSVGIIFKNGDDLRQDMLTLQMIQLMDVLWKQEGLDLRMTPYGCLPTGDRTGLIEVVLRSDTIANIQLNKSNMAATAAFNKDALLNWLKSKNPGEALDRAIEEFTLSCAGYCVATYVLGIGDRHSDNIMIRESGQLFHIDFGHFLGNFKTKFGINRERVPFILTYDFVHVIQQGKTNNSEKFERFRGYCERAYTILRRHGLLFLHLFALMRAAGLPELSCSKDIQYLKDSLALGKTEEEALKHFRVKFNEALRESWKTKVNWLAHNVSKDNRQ
T1 sequence (P27986 whole entry partner, canonical isoform): as the sequence (P27986 whole entry partner, canonical isoform) above

SMILES	IC50 (PI3K-delta) [nM]	Selectivity versus PI3Kalpha (PI3K-alpha)
CCn1c(-c2cnc(C)nc2)nc2c(N[C@H]3CCN(C(=O)C4CC4(C)C)C3)ncnc21 (mixture of isomers) [Compound 2-56, N-{(3S)-1-[((R and S)-2,2-dimethylcyclopropyl)carbonyl]pyrrolidin-3-yl}-9-ethyl-8-(2-methylpyrimidin-5-yl)-9H-purin-6-amine]	1	>10
CCn1c(-c2cnc(C)nc2)nc2c(N[C@H]3CCN(C(=O)C4NC(=O)C4(C)C)C3)ncnc21 (mixture of isomers) [Compound 2-67, (R and S)-4-{[(3S)-3-{[9-ethyl-8-(2-methylpyrimidin-5-yl)-9H-purin-6-yl]amino}pyrrolidin-1-yl]carbonyl}-3,3-dimethylazetidin-2-one]	1.5	>10
CCn1c(-c2cnc(C)nc2)nc2c(N[C@H]3CCN(C(=O)C4(C)CCCO4)C3)ncnc21 (mixture of isomers) [Compound 2-68, 9-ethyl-8-(2-methylpyrimidin-5-yl)-N-{(3S)-1-[((S and R)-2-methyltetrahydrofuran-2-yl)carbonyl]pyrrolidin-3-yl}-9H-purin-6-amine]	26	>10
CCn1c(-c2cnc(C)nc2)nc2c(N[C@H]3CCN(C(=O)C4CC(=O)N(C(C)C)C4)C3)ncnc21 (mixture of isomers) [Compound 2-81, (R and S)-4-{[(3S)-3-{[9-ethyl-8-(2-methylpyrimidin-5-yl)-9H-purin-6-yl]amino}pyrrolidin-1-yl]carbonyl}-1-(1-methylethyl)pyrrolidin-2-one]	13	>10
CCn1c(-c2cnc(C)nc2)nc2c(N[C@H]3CCN(C(=O)C4CCCCN4)C3)ncnc21 (mixture of isomers) [Compound 2-83, 9-ethyl-8-(2-methylpyrimidin-5-yl)-N-[(3S)-1-((R and S)-piperidin-2-ylcarbonyl)pyrrolidin-3-yl]-9H-purin-6-amine]	19	>10
CCn1c(-c2cnc(C)nc2)nc2c(N[C@H]3CCN(C(=O)C4C5CCNC54)C3)ncnc21 (mixture of isomers) [Compound 2-85, N-[(3S)-1-(1(R and S), 5(R and S), 6(R and S)-2-azabicyclo[3.1.0]hex-6-ylcarbonyl)pyrrolidin-3-yl]-9-ethyl-8-(2-methylpyrimidin-5-yl)-9H-purin-6-amine]	7.3	>10
CCn1c(-c2cnc(C)nc2)nc2c(NC3CN(C(=O)C4CC4)CC3(C)C)ncnc21 (racemic) [Compound 2-95, (R and S)-N-[1-(cyclopropylcarbonyl)-4,4-dimethylpyrrolidin-3-yl]-9-ethyl-8-(2-methylpyrimidin-5-yl)-9H-purin-6-amine]	4.5	>10

Continued by falling IC50 (PI3K-delta), values first:

IC50 (PI3K-delta) [nM]	Selectivity versus PI3Kalpha (PI3K-alpha)	SMILES
6.7	>10	CCn1c(-c2cnc(C)nc2)nc2c(N[C@H]3CCN(C(=O)C4CCC(=O)N4)C3)ncnc21 (mixture of isomers) [Compound 2-64, (R and S)-5-{[(3S)-3-{[9-ethyl-8-(2-methylpyrimidin-5-yl)-9H-purin-6-yl]amino}pyrrolidin-1-yl]carbonyl}pyrrolidin-2-one]
6	>10	CCn1c(-c2cnc(C)nc2)nc2c(N[C@@H]3CN(C(=O)C4CC4)C[C@H]3O)ncnc21 (racemic) [Compound 2-96, 1-(cyclopropylcarbonyl)-4-{(3R,4R) and (3S,4S)-[9-ethyl-8-(2-methylpyrimidin-5-yl)-9H-purin-6-yl]amino}pyrrolidin-3-ol]
3.4	>10	CCn1c(-c2cnc(C)nc2)nc2c(NC3CN(C(=O)C4CC4)CC3C)ncnc21 (racemic) [Compound 3-16, N-[(3R,4R and 3S,4S)-1-(cyclopropylcarbonyl)-4-methylpyrrolidin-3-yl]-9-ethyl-8-(2-methylpyrimidin-5-yl)-9H-purin-6-amine]

— patent US9938281B2 (Merck Sharp & Dohme Corp., priority 2012, dated 2018)
